Patent US10703755B2, “Substituted purine derivative” (SUMITOMO DAINIPPON PHARMA CO., LTD., priority 2016, dated 2020)

Target: human TLR7 (Homo sapiens (Human), UniProt Q9NYK1)
Test: Test for evaluating the inhibition of the activation of human TLR7 (SEAP reporter, TLR7/NF-κB/SEAPorter HEK293 cell)
Assay type: cell-based
Conditions: R-848 200 nmol/L; for IC50: SEAP reporter; for inhibitory effect against TLR7 in the test for evaluating inhibition of the activation of TLR7: SEAP activity, result in words
Experimental: As human TLR7 expressing cell line, HEK293 cell line was bought from IMGENEX Corporation (TLR7/NF-ηB/SEAPorter™ HEK293 cell), which is human embryonic kidney cell line and stably expresses full-length human TLR7 gene and secreted alkaline phosphatase (SEAP) reporter gene under the transcriptional control of an NE-ηB response element. The TLR7/NF-ηB/SEAPorter™ HEK293 cell was cultivated with DMEM containing 10% fetal bovine serum (FBS) and 10 μg/mL blasticidin S at 37° C. in the presence of 5% CO2. The TLR7/NF-ηB/SEAPorter™ HEK293 cell was seeded into 96-well microtiter plate at 5×10^4 cell/90 μL/well, and the place was cultivated at 37° C. in a CO2 incubator overnight.
Each compound prepared in the Examples was evaluated by Test 1.

Sequence of human TLR7 (Q9NYK1 27-1049): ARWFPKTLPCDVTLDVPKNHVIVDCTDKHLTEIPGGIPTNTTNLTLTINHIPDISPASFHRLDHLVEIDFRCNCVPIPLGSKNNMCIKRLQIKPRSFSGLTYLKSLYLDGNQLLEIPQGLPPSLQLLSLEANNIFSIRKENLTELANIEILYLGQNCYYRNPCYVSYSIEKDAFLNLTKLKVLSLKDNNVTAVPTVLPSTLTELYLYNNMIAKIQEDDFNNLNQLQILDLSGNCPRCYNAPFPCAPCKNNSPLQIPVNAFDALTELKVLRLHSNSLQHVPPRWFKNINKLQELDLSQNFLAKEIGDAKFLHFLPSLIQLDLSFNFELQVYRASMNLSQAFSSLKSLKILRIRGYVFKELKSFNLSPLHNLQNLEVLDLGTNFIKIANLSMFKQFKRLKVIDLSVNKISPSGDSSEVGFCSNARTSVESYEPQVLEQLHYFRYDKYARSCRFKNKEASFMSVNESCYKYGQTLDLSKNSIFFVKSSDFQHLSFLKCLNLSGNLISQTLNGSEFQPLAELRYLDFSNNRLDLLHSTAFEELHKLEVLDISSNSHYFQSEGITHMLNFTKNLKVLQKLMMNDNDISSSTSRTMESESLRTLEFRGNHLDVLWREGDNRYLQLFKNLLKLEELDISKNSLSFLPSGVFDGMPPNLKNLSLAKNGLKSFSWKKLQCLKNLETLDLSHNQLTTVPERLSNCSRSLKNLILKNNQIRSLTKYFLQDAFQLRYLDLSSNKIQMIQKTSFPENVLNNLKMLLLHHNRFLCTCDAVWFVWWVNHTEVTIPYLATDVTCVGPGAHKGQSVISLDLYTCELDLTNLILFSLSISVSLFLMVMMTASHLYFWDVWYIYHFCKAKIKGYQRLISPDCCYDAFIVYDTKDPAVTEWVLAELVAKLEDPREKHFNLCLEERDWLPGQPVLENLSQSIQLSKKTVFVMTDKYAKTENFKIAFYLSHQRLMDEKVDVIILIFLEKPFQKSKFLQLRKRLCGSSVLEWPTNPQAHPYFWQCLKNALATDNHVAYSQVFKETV

CCCCOc1nc(N)c2nc(-c3cncc(COC)c3)n(Cc3ccccc3)c2n1 [Example 29]
IC50: 1000 nM

CCOc1nc(N)c2nc(-c3cncc(C(F)F)c3)n(Cc3ccccc3)c2n1 [Example 30]
IC50: 2800 nM

COCCOc1nc(N)c2nc(-c3cncc(C#N)c3)n(Cc3ccc(CN(C)C)cc3)c2n1 [Example 31]
IC50: 7700 nM

COCCOc1nc(N)c2nc(-c3cnc4ccccc4c3)n(Cc3ccc(CN(C)C)cc3)c2n1 [Example 32]
IC50: 8600 nM

CCOc1nc(N)c2nc(-c3cncc(C)c3)n(Cc3ccc(CN(C)C)cc3)c2n1 [Example 33]
IC50: 820 nM

CCOc1nc(N)c2nc(-c3cncc(COC)c3)n(Cc3ccc(CN(C)C)cc3)c2n1 [Example 34]
IC50: 1700 nM

CCCCOc1nc(N)c2nc(-c3ccccn3)n(Cc3ccccc3)c2n1 [Example 35]
IC50: 18100 nM

CCOc1nc(N)c2nc(-c3cncc(OC)c3)n(Cc3ccc(CN(C)C)cc3)c2n1 [Example 36]
IC50: 2900 nM

CCOc1nc(N)c2nc(-c3cncc(F)c3)n(Cc3cnn(C)c3)c2n1 [Example 37]
IC50: 2700 nM

CCOc1nc(N)c2nc(-c3cncc(F)c3)n(Cc3ccc(O[C@@H]4CCN(C)C4)nc3)c2n1 [Example 38]
IC50: 520 nM

CCOc1nc(N)c2nc(-c3cncc(F)c3)n(Cc3ccc(O[C@H]4CCN(C)C4)nc3)c2n1 [Example 39]
IC50: 820 nM

CCOc1nc(N)c2nc(-c3cncc(F)c3)n(Cc3ccc(O[C@@H]4CN5CCC4CC5)nc3)c2n1 [Example 40]
IC50: 120 nM

CCOc1nc(N)c2nc(-c3cncc(F)c3)n(Cc3ccc(O[C@H]4CN5CCC4CC5)nc3)c2n1 [Example 41]
IC50: 140 nM

CCOc1nc(N)c2nc(-c3cncc(F)c3)n(Cc3ccc(OCCCN(C)C)nc3)c2n1 [Example 42]
IC50: 550 nM

CCOc1nc(N)c2nc(-c3cncc(F)c3)n(Cc3cc(OC)ccc3F)c2n1 [Example 43]
IC50: 2000 nM

CCOc1nc(N)c2nc(-c3cncc(F)c3)n(Cc3ccccc3F)c2n1 [Example 44]
IC50: 750 nM

CCOc1nc(N)c2nc(-c3cncc(F)c3)n(Cc3ccc(-c4cncc(F)c4)cc3)c2n1 [Example 45]
IC50: 950 nM

CCOc1nc(N)c2nc(-c3cncc(F)c3)n(Cc3ccc(C4CN5CCC4CC5)cc3)c2n1 (stereo not drawn) [Example 46]
inhibitory effect against TLR7 in the test for evaluating inhibition of the activation of TLR7: potent inhibitory effect against TLR7 | IC50: 25 nM

CCOc1nc(N)c2nc(-c3cncc(F)c3)n(Cc3ccc(OCCN4CCCC4)cc3)c2n1 [Example 47, 2-Ethoxy-8-(5-fluoropyridin-3-yl)-9-{4-[2-(pyrrolidin-1-yl)ethoxy]benzyl}-9H-purine-6-amine]
inhibitory effect against TLR7 in the test for evaluating inhibition of the activation of TLR7: potent inhibitory effect against TLR7 | IC50: 30 nM

CCOc1nc(N)c2nc(-c3cncc(F)c3)n(Cc3cccc(OCCN4CCCC4)c3)c2n1 [Example 51]
inhibitory effect against TLR7 in the test for evaluating inhibition of the activation of TLR7: potent inhibitory effect against TLR7 | IC50: 59 nM

CCOc1nc(N)c2nc(-c3cncc(F)c3)n(Cc3ccc(OCCN(C)C)cn3)c2n1 [Example 56]
IC50: 660 nM

CCOc1nc(N)c2nc(-c3cncc(F)c3)n(Cc3ccc(OC4CCN(C)CC4)nc3)c2n1 [Example 60]
IC50: 230 nM

CCOc1nc(N)c2nc(-c3cncc(F)c3)n(Cc3ccc(N(C)CCN(C)C)nc3)c2n1 [Example 64, N-(5-{[6-Amino-2-ethoxy-8-(5-fluoropyridin-3-yl)-9H-purin-9-yl]methyl}pyridin-2-yl)-N,N′,N′-trimethylethane-1,2-diamine]
IC50: 680 nM

CCOc1nc(N)c2nc(-c3cncc(F)c3)n(Cc3ccc(N4CCN(C)CC4)nc3)c2n1 [Example 65]
IC50: 550 nM

CCOc1nc(N)c2nc(-c3cncc(F)c3)n(Cc3ccc(O[C@@H]4CN5CCC4CC5)cc3)c2n1 [Example 66, 9-{4-[(3S)-1-Azabicyclo[2.2.2]oct-3-yloxy]benzyl}-2-ethoxy-8-(5-fluoropyridin-3-yl)-9H-purine-6-amine]
inhibitory effect against TLR7 in the test for evaluating inhibition of the activation of TLR7: potent inhibitory effect against TLR7 | IC50: 21 nM

CCOc1nc(N)c2nc(-c3cncc(F)c3)n(Cc3ccc(O[C@H]4CN5CCC4CC5)cc3)c2n1 [Example 67]
inhibitory effect against TLR7 in the test for evaluating inhibition of the activation of TLR7: potent inhibitory effect against TLR7 | IC50: 51 nM

CCOc1nc(N)c2nc(-c3cncc(F)c3)n(Cc3ccc(N4CCN(C)CC4)cc3)c2n1 [Example 68, 2-Ethoxy-8-(5-fluoropyridin-3-yl)-9-[4-(4-methylpiperazin-1-yl)benzyl]-9H-purine-6-amine]
IC50: 180 nM

COc1nc(C)c2nc(-c3cncc(F)c3)n(Cc3ccc(O[C@@H]4CN5CCC4CC5)nc3)c2n1 [Example 69, 9-({6-[(3S)-1-azabicyclo[2.2.2]oct-3-yloxy]pyridin-3-yl}methyl)-8-(5-fluoropyridin-3-yl)-2-methoxy-6-methyl-9H-purine]
inhibitory effect against TLR7 in the test for evaluating inhibition of the activation of TLR7: potent inhibitory effect against TLR7 | IC50: 130 nM

COc1nc(C)c2nc(-c3cncc(F)c3)n(Cc3ccc(O[C@H]4CN5CCC4CC5)nc3)c2n1 [Example 70]
inhibitory effect against TLR7 in the test for evaluating inhibition of the activation of TLR7: potent inhibitory effect against TLR7 | IC50: 110 nM

CCOc1nc(C)c2nc(-c3cncc(F)c3)n(Cc3ccc(O[C@@H]4CN5CCC4CC5)nc3)c2n1 [Example 71, 9-({6-[(3S)-1-azabicyclo[2.2.2]oct-3-yloxy]pyridin-3-yl}methyl)-2-ethoxy-8-(5-fluoropyridin-3-yl)-6-methyl-9H-purine]
inhibitory effect against TLR7 in the test for evaluating inhibition of the activation of TLR7: potent inhibitory effect against TLR7 | IC50: 58 nM

CCOc1nc(C)c2nc(-c3cncc(F)c3)n(Cc3ccc(O[C@H]4CN5CCC4CC5)nc3)c2n1 [Example 72]
inhibitory effect against TLR7 in the test for evaluating inhibition of the activation of TLR7: potent inhibitory effect against TLR7 | IC50: 81 nM

CCOc1nc(C)c2nc(-c3cncc(F)c3)n(Cc3ccc(OCC4CN5CCC4CC5)nc3)c2n1 (stereo not drawn) [Example 73]
IC50: 160 nM

CCCOc1nc(C)c2nc(-c3cncc(F)c3)n(Cc3ccc(O[C@@H]4CN5CCC4CC5)nc3)c2n1 [Example 75]
IC50: 200 nM

CCCOc1nc(C)c2nc(-c3cncc(C)c3)n(Cc3ccc(O[C@@H]4CN5CCC4CC5)nc3)c2n1 [Example 76]
IC50: 400 nM

CCOc1nc(N)c2nc(-c3cncc(F)c3)n(Cc3ccc(CO)cc3)c2n1 [Example 77, (4-{[6-Amino-2-ethoxy-8-(5-fluoropyridin-3-yl)-9H-purin-9-yl]methyl}phenyl)methanol]
IC50: 2400 nM

CCOc1nc(C)c2nc(-c3cncc(F)c3)n(Cc3ccc(CO)cc3)c2n1 [Example 78]
IC50: 1300 nM

CCCCOc1nc(C)c2nc(-c3cncc(F)c3)n(Cc3ccc(CO)cc3)c2n1 [Example 79]
IC50: 3500 nM

CCOc1nc(N)c2nc(-c3cncc(F)c3)n(Cc3ccc(CN(C)C)cc3)c2n1 [Example 80, 9-{4-[(Dimethylamino)methyl]benzyl}-2-ethoxy-8-(5-fluoropyridin-3-yl)-9H-purine-6-amine]
IC50: 540 nM

CCOc1nc(N)c2nc(-c3cncc(F)c3)n(Cc3ccc(CN4CCN(C)CC4)cc3)c2n1 [Example 81]
inhibitory effect against TLR7 in the test for evaluating inhibition of the activation of TLR7: potent inhibitory effect against TLR7 | IC50: 60 nM

CCCCOc1nc(N)c2nc(-c3cncc(F)c3)n(Cc3ccc(CN(C)C)cc3)c2n1 [Example 82]
IC50: 400 nM

CCCCOc1nc(N)c2nc(-c3cncc(F)c3)n(Cc3ccc(CN4CCOCC4)cc3)c2n1 [Example 83]
IC50: 1300 nM

CCCCOc1nc(N)c2nc(-c3cncc(C)c3)n(Cc3cccc(CN(C)C)c3)c2n1 [Example 85]
IC50: 800 nM

CCCCOc1nc(N)c2nc(-c3cncc(F)c3)n(Cc3cccc(CN4CCOCC4)c3)c2n1 [Example 86]
IC50: 300 nM

COCCOc1nc(N)c2nc(-c3cncc(F)c3)n(Cc3ccc(CN(C)C)cc3)c2n1 [Example 87]
IC50: 2500 nM

COCCOc1nc(N)c2nc(-c3cncc(F)c3)n(Cc3ccc(CN4CCOCC4)cc3)c2n1 [Example 88]
IC50: 900 nM

COCCOc1nc(N)c2nc(-c3cncc(F)c3)n(Cc3cccc(CN(C)C)c3)c2n1 [Example 89]
IC50: 1400 nM

COCCOc1nc(N)c2nc(-c3cncc(F)c3)n(Cc3cccc(CN4CCOCC4)c3)c2n1 [Example 90]
IC50: 4200 nM

COCCOc1nc(N)c2nc(-c3cncc(F)c3)n(Cc3ccc(CN4CCCCC4)cc3)c2n1 [Example 91]
IC50: 250 nM

COCCOc1nc(N)c2nc(-c3cncc(F)c3)n(Cc3ccc(CN4CCC(F)(F)CC4)cc3)c2n1 [Example 92]
IC50: 370 nM

CCOc1nc(N)c2nc(-c3cncc(F)c3)n(Cc3ccc(CN4CCN(C)C(=O)C4)cc3)c2n1 [Example 93]
IC50: 290 nM

CCOc1nc(N)c2nc(-c3cncc(F)c3)n(Cc3ccc(CN4C[C@@H]5C[C@H]4CN5C)cc3)c2n1 [Example 94]
inhibitory effect against TLR7 in the test for evaluating inhibition of the activation of TLR7: potent inhibitory effect against TLR7 | IC50: 20 nM

CCOc1nc(N)c2nc(-c3cncc(F)c3)n(Cc3ccc(CN4[C@@H]5CC[C@H]4CN(C)C5)cc3)c2n1 [Example 95]
inhibitory effect against TLR7 in the test for evaluating inhibition of the activation of TLR7: potent inhibitory effect against TLR7 | IC50: 50 nM

CCOc1nc(N)c2nc(-c3cncc(F)c3)n(Cc3ccc(CN4C[C@@H]5C[C@H]4CO5)cc3)c2n1 [Example 96]
inhibitory effect against TLR7 in the test for evaluating inhibition of the activation of TLR7: potent inhibitory effect against TLR7 | IC50: 80 nM

CCOc1nc(N)c2nc(-c3cncc(F)c3)n(Cc3ccc(CN4CCOCC4)cc3)c2n1 [Example 97]
IC50: 100 nM

CCOc1nc(N)c2nc(-c3cncc(F)c3)n(Cc3ccc(CN4CCCCC4)cc3)c2n1 [Example 98]
inhibitory effect against TLR7 in the test for evaluating inhibition of the activation of TLR7: potent inhibitory effect against TLR7 | IC50: 71 nM
